Experiments:
Type in all cases: cell-based, human
[1] = tested on: GiLA1 organoid monolayers; experiment: Tissue patterning (nodes / cell clusters) in GiLA1 organoid monolayers; details: for speed of node loss / patterning defects: GiLA1 monolayers, ERK activation methods compared
Protocol: SCREENSTAR 384-well black plates (Grenier #781866) were coated with ice cold Matrigel (CB40230C) diluted 1:40 in Serum-free Advanced-DMEM F12 media (SFM) for 1 hr. Monolayers were prepared using our previously described protocol (Thorne et al., 2018; Sanman et al., 2020). Briefly, cells were removed from 3D Matrigel and resuspended in ice cold SFM and washed three times using ice cold SFM. Organoids were then dissociated by resuspension in Trypsin+10 μM Y-27 for 4 min followed by quenching in DMEM supplemented with 10% FBS and washing. Coating media was removed from 384-well plates and organoids plated at 7000 cells/well after counting using hemocytometer and cultured for 24 hr. Seeding media was then removed and replaced with complete LWRN media and changed daily for 7 days until cultures became confluent and tissue patterning was observed.
(§1) 384-well plates were imaged with fluorescent microscopy on a Nikon Eclipse TI2 automated microscope. For quantification of wave dynamics, organoids were imaged every 10-30 min. Tracking and segmentation of single cells in time lapse images in FIG. 2 was performed using the MATLAB program p53Cinema (Reyes et al., 2019). Analysis of the extracted data was performed in MATLAB. For the ERK activity heat maps in FIG. 3, images of the ERK-KTRmRuby2 and the H2B-iRFP670 were captured every 7 min for 24 hr. For each frame, individual nuclei were segmented using a MATLAB script developed in-house that identifies nuclei based on the H2B-iRFP670 images. The cytoplasmic ERK-KTRmRuby2 signal was obtained by creating a two pixel wide annulus surrounding the nucleus and averaging the intensity. Cells with active ERK were identified as having a mean ERK-KTR cytoplasmic signal>the mean ERK-KTR nuclear signal. The density-based spatial clustering of applications with noise algorithm (dbscan, MATLAB, 2021b) was performed on the centroids of ERK active cells to identify spatial clusters of cells with active ERK. A boundary was drawn around the spatial clusters using the boundary algorithm in MATLAB. The ERK positive regions of each frame were summed up to generate the heat map in MATLAB.
Since ERK waves are largely restricted to the post-mitotic, differentiated compartments in our gut organoid monolayer model, we hypothesized that ERK waves may help regulate the patterning observed in the GiLA1 monolayers by restricting the stem cell compartment. To test this hypothesis, we asked if global activation of ERK activity could disrupt the patterning of the organoid monolayers. a well-established activator of the ERK pathway, phorbol 12-myristate 13-acetate (PMA) was used to acutely activate ERK signaling across the monolayer. […] To determine if nodes re-formed once ERK activity returned to baseline, we treated GiLA1 monolayers with a pulse of 100 nM PMA for 1 min.

ERK = ERK kinase translocation reporter (ERK-KTR) activity in GiLA1 organoid monolayers; details: for time to activation of ERK: GiLA1 monolayers, ERK activation methods compared
Protocol: 384-well plates were imaged with fluorescent microscopy on a Nikon Eclipse TI2 automated microscope. For quantification of wave dynamics, organoids were imaged every 10-30 min. Tracking and segmentation of single cells in time lapse images in FIG. 2 was performed using the MATLAB program p53Cinema (Reyes et al., 2019). Analysis of the extracted data was performed in MATLAB. For the ERK activity heat maps in FIG. 3, images of the ERK-KTRmRuby2 and the H2B-iRFP670 were captured every 7 min for 24 hr. For each frame, individual nuclei were segmented using a MATLAB script developed in-house that identifies nuclei based on the H2B-iRFP670 images. The cytoplasmic ERK-KTRmRuby2 signal was obtained by creating a two pixel wide annulus surrounding the nucleus and averaging the intensity. Cells with active ERK were identified as having a mean ERK-KTR cytoplasmic signal>the mean ERK-KTR nuclear signal. The density-based spatial clustering of applications with noise algorithm (dbscan, MATLAB, 2021b) was performed on the centroids of ERK active cells to identify spatial clusters of cells with active ERK. A boundary was drawn around the spatial clusters using the boundary algorithm in MATLAB. The ERK positive regions of each frame were summed up to generate the heat map in MATLAB. MAPK/ERK signaling is a critical regulatory pathway involved in maintaining homeostasis of epithelia in the gut (Wei et al., 2020). To assess ERK activity in human organoid monolayers over time, we utilized a well-characterized ERK kinase translocation reporter (ERK-KTR) (Regot et al., 2014). The ERK-KTR utilizes a bipartite nuclear localization signal (NLS) and nuclear export signal (NES) to transform ERK kinase activity into a nuclear to cytoplasmic shuttling event that is easily quantified by microscopy in organoid monolayers (FIG. 3A). We transduced the GiLA1 organoid line with a H2B-iRFP670 nuclear marker and ERK-KTR-mRuby2 reporter to perform nuclear and cytoplasmic segmentation and calculate nuclear-to-cytoplasmic ratios of the ERK-KTR (FIG. 3A, FIG. 3B and FIG. 9A).

[2] = tested on: GiLA1 organoid monolayers; experiment: Apoptosis-induced ERK waves and cell movement (particle image velocimetry) in GiLA1 organoid monolayers; details: 5 μM Gefitinib (FIG. 3G), after an apoptotic event
Protocol: as §1, with “The ERK positive regions of each frame were summed up to generate the heat map in MATLAB.” left out
To determine the properties of the ERK waves, about 450 cells were tracked and their ERK activity was assessed over time following an apoptotic event (FIG. 3D, left panel and FIG. 3E). […]

Wnt signaling = experiment: TopGFP Wnt reporter in organoid monolayers; details: 3 μM pyrvinium, 72 hr
Protocol: Organoids were treated with either 3 μM pyrvinium to block Wnt signaling or 10 μM GSK-3 inhibitor to stimulate the Wnt pathway for 72 hr. Cells were fixed and stained for DAPI. Total GFP fluorescence across the monolayer was measured and normalized by mCherry control to obtain TopGFP measurements per condition. Significance between treatment groups was determined by t-test. Scale bar=100 μm.

Row | SMILES | loss of patterning (cell clusters) ([1]; 100 nM PMA, by 24 hr post-treatment (FIG. 4D-F)) | speed of node loss / patterning defects [1] | node and ERK-KTR activity after pulse, washout and chase ([1]; PMA pulse 1 min, washout, chase for 24 hr (FIG. 4G bottom)) | nodes after pulse treatment ([1]; pulse of 100 nM PMA for 1 min) | re-formation of nodes after pulse treatment ([1]; pulse of 100 nM PMA for 1 min, by 48 hr (FIG. 4G)) | ERK activity after continuous treatment (ERK; 100 nM PMA, 20-30 min (FIGS. 4B and C)) | time to activation of ERK (ERK) | ERK levels after pulse treatment, later (ERK; pulse of 100 nM PMA for 1 min, after washout) | ERK activation after pulse treatment (ERK; pulse of 100 nM PMA for 1 min, read after 30 min) | ERK waves and tropism towards dying cells [2] | Wnt signaling (TopGFP normalized by mCherry) (Wnt signaling)
1 | CCCCCCCCCCCCCC(=O)O[C@@H]1[C@@H](C)[C@@]2(O)[C@@H](C=C(CO)C[C@]3(O)C(=O)C(C)=C[C@@H]23)[C@@H]2C(C)(C)[C@]12OC(C)=O [PMA, phorbol 12-myristate 13-acetate] | almost complete loss of cell clusters | rapid node loss | node loss and resuppression of ERK activity | node loss | nodes did not re-form | immediate hyperactivated ERK was observed in all cells | within hours | ERK levels returned to normal | ERK activation in all cells |  | 
2 | COc1cc2ncnc(Nc3ccc(F)c(Cl)c3)c2cc1OCCCN1CCOCC1 [Gefitinib] |  |  |  |  |  |  |  |  |  | did not induce ERK waves or display tropism towards dying cells | 
3 | Cc1cc(/C=C/c2ccc3cc(N(C)C)ccc3[n+]2C)c(C)n1-c1ccccc1 [pyrvinium] |  | took days to induce patterning defects |  |  |  |  | within hours |  |  |  | Inhibits Wnt Signaling
